GI50 and TGI data for twelve compounds are collected here from PubChem BioAssay (NCI).

Test systems include 786-0 renal; ACHN renal; IGROV1 ovarian; M14 melanoma; MOLT-4 leukemia; NCI/ADR-RES ovarian; RPMI-8226 leukemia; SK-MEL-2 melanoma; SN12C renal; T-47D breast.
Holding throughout (test): growth of human tumour cells (NCI), 48 h

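Cells were grown in 96-well plates and exposed to each compound for 48 hours at five concentrations; endpoints were interpolated linearly between bracketing concentrations, or set to the highest concentration if not reached. The concentration for 50% growth inhibition is given as GI50. Definition used: TGI = concentration required for complete inhibition of growth.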 A value given as a limit tells only on which side of the number the result lay.

As for `COc1ccc(N2CCN(CC(=O)N3CCN(c4nnc(-c5ccccc5)c(-c5ccccc5)n4)CC3)CC2)cc1`, the GI50 in the test with 786-0 renal is 4.91 µM; in the test on ACHN renal, 7.94 µM; in the test on IGROV1 ovarian, 43.2 µM; with M14 melanoma it was 17 µM; with MOLT-4 leukemia it was 4.79 µM; in the test with NCI/ADR-RES ovarian it was 8.68 µM. The GI50 is 3.98 µM in the test with RPMI-8226 leukemia, 51.3 µM with SK-MEL-2 melanoma, 8.64 µM with SN12C renal and 2.56 µM with T-47D breast. In addition, the TGI was more than 100 µM in the test on 786-0 renal; more than 100 µM in the test with ACHN renal; more than 100 µM in the test on IGROV1 ovarian; more than 100 µM in the test with M14 melanoma; more than 71 µM in the test with MOLT-4 leukemia; more than 100 µM in the test with NCI/ADR-RES ovarian. Besides, the TGI with RPMI-8226 leukemia is 31.1 µM; in the test with SK-MEL-2 melanoma it was more than 100 µM; with SN12C renal, more than 100 µM; in the test with T-47D breast it was 18.5 µM.

With `COc1ccc(S(=O)(=O)O)cc1NS(=O)(=O)c1ccc(C)cc1`, the TGI in the test on 786-0 renal, with ACHN renal, with IGROV1 ovarian, in the test on M14 melanoma, in the test on MOLT-4 leukemia and with NCI/ADR-RES ovarian was more than 100 µM in each case. For the same compound, the TGI in the test on RPMI-8226 leukemia, in the test with SK-MEL-2 melanoma, with SN12C renal and in the test on T-47D breast was more than 100 µM throughout.

As for `CC(=O)OC1CCC2(C)C(CCC3C2CCC2(C)C(C4=CC(=O)OC4)CCC32)C1` (centres undefined), the GI50 with 786-0 renal was 15.6 µM; in the test with ACHN renal it was 12.3 µM; in the test on IGROV1 ovarian it was 16.9 µM; with M14 melanoma, 5.93 µM; in the test with MOLT-4 leukemia, 2.6 µM; in the test with NCI/ADR-RES ovarian, 8.37 µM. Further, the GI50 with RPMI-8226 leukemia was 0.928 µM; in the test with SK-MEL-2 melanoma it was 7.72 µM; in the test on SN12C renal, 11.1 µM; in the test on T-47D breast it was 13.1 µM. The TGI in the test with 786-0 renal was 39.7 µM; in the test with ACHN renal, 38.9 µM; in the test on IGROV1 ovarian, 53.2 µM; in the test on M14 melanoma, more than 100 µM; in the test with MOLT-4 leukemia, 6.3 µM; in the test with NCI/ADR-RES ovarian, 42.7 µM. The TGI in the test on RPMI-8226 leukemia turned out to be 3.03 µM; in the test on SK-MEL-2 melanoma, 34.4 µM; with SN12C renal, 99.1 µM; in the test on T-47D breast, 45.5 µM.

Consider `O=C(Cc1ccc(/C=C/C(=O)c2ncc[nH]2)cc1)Nc1ccc(Br)cc1`, for which the GI50 in the test with 786-0 renal is 0.946 µM; in the test with ACHN renal, 2.72 µM; with IGROV1 ovarian, 2.37 µM; in the test on M14 melanoma, 3.11 µM; with MOLT-4 leukemia it was 4.02 µM; in the test on NCI/ADR-RES ovarian it was 4.61 µM. The GI50 with RPMI-8226 leukemia was 0.705 µM; in the test on SK-MEL-2 melanoma, more than 16.7 µM; in the test on SN12C renal, 2.59 µM; in the test on T-47D breast it was 3.82 µM. For the same compound, the TGI with 786-0 renal is 3.13 µM; with ACHN renal, 5.25 µM; with IGROV1 ovarian it was 7.22 µM; in the test on M14 melanoma, 7.83 µM; in the test on MOLT-4 leukemia, more than 16.7 µM; in the test with NCI/ADR-RES ovarian, more than 16.7 µM. Moreover, the TGI in the test on RPMI-8226 leukemia was 4.06 µM; in the test on SK-MEL-2 melanoma it was more than 16.7 µM; with SN12C renal, 6.93 µM; in the test with T-47D breast, more than 16.7 µM.

In the case of `Cc1cc[c-]cc1.Fc1c[c-]c(-c2ccccn2)c(F)c1.N#CCC[PH+](CCC#N)c1ccccc1.[Pt+2]`, the GI50 in the test on 786-0 renal was 3.57 µM; with ACHN renal it was 3.33 µM; with IGROV1 ovarian it was 2.89 µM; with M14 melanoma, 2.94 µM; in the test on MOLT-4 leukemia, 2.79 µM; in the test with NCI/ADR-RES ovarian, 4.24 µM. The GI50 was 3.3 µM in the test with RPMI-8226 leukemia, 2.41 µM in the test on SK-MEL-2 melanoma, 3.17 µM in the test on SN12C renal and 2.79 µM with T-47D breast. In addition, the TGI is 18.8 µM in the test on 786-0 renal; 20.9 µM in the test on ACHN renal; 21.9 µM in the test on IGROV1 ovarian; 10.9 µM in the test with M14 melanoma; more than 100 µM with MOLT-4 leukemia; 52.8 µM in the test with NCI/ADR-RES ovarian. Further, the TGI amounted to 31.2 µM in the test with RPMI-8226 leukemia, 6.57 µM with SK-MEL-2 melanoma, 36.1 µM with SN12C renal and 41.1 µM with T-47D breast.

With `Nc1c(C(=O)Nc2cccc3ccccc23)sc2nc3c(cc12)CCCC3`, the GI50 is 1.11 µM in the test with 786-0 renal; 4.37 µM in the test on ACHN renal; 2.34 µM in the test on IGROV1 ovarian; 0.464 µM with M14 melanoma; 0.637 µM in the test on MOLT-4 leukemia; 0.833 µM with NCI/ADR-RES ovarian. Also, the GI50 in the test on RPMI-8226 leukemia was 2.77 µM; in the test on SK-MEL-2 melanoma, 1.04 µM; with SN12C renal, 6 µM; with T-47D breast, 0.44 µM. Besides, the TGI with 786-0 renal, with ACHN renal, in the test on IGROV1 ovarian, in the test on M14 melanoma, in the test on MOLT-4 leukemia and in the test with NCI/ADR-RES ovarian was more than 100 µM each time. The TGI in the test on RPMI-8226 leukemia was more than 100 µM; in the test on SK-MEL-2 melanoma, more than 100 µM; in the test with SN12C renal, more than 100 µM; in the test with T-47D breast, 90.5 µM.

Consider `COc1cc(Nc2ncc3c(n2)-c2ccc(Cl)cc2C(c2c(F)cccc2OC)=NC3)ccc1C(=O)O`, for which the GI50 with 786-0 renal is 4.4 µM; with ACHN renal, 2.34 µM; in the test on IGROV1 ovarian it was 2.19 µM; with M14 melanoma it was 13.6 µM; in the test with MOLT-4 leukemia, 8.09 µM; in the test with NCI/ADR-RES ovarian it was 1.38 µM. In addition, the GI50 with RPMI-8226 leukemia is 12 µM; in the test on SK-MEL-2 melanoma it was 13.4 µM; with SN12C renal, 4.04 µM; in the test with T-47D breast, 12.1 µM. The TGI in the test on 786-0 renal is more than 83.6 µM; with ACHN renal, 55.1 µM; in the test with IGROV1 ovarian it was 19.3 µM; in the test with M14 melanoma it was 42.8 µM; in the test on MOLT-4 leukemia, more than 75.9 µM; in the test on NCI/ADR-RES ovarian, more than 100 µM. Further, the TGI in the test on RPMI-8226 leukemia was more than 65 µM; in the test with SK-MEL-2 melanoma, 38 µM; in the test with SN12C renal, more than 90.4 µM; in the test on T-47D breast it was more than 91.2 µM.

Regarding `O=C1CC(c2ccccc2)Cc2nc3ccc(Cl)cc3cc21` (centres undefined), the GI50 in the test on 786-0 renal is 0.815 µM; in the test with ACHN renal, 0.261 µM; in the test with IGROV1 ovarian, 0.397 µM; in the test on M14 melanoma, 0.0356 µM; with MOLT-4 leukemia, 0.0644 µM; in the test on NCI/ADR-RES ovarian it was 0.0586 µM. Also, the GI50 in the test on RPMI-8226 leukemia is 2.78 µM; with SK-MEL-2 melanoma it was 0.207 µM; with SN12C renal it was 0.518 µM; in the test on T-47D breast it was 6.17 µM. Besides, the TGI is more than 74.7 µM in the test on 786-0 renal; more than 100 µM with ACHN renal; more than 100 µM in the test with IGROV1 ovarian; 23.8 µM in the test on M14 melanoma; more than 100 µM in the test on MOLT-4 leukemia; 5.21 µM in the test on NCI/ADR-RES ovarian. For the same compound, the TGI in the test on RPMI-8226 leukemia was 37.8 µM; in the test with SK-MEL-2 melanoma it was more than 100 µM; in the test on SN12C renal, more than 84.9 µM; in the test on T-47D breast it was more than 89 µM.

With `O=C1OCC2=C1C(c1cccc(F)c1)c1cc3c(cc1N2CCO)OCCO3` (centres undefined), the GI50 is 0.208 µM in the test with 786-0 renal; 0.386 µM with ACHN renal; 0.333 µM in the test with IGROV1 ovarian; 0.105 µM in the test with M14 melanoma; 0.301 µM with MOLT-4 leukemia; 0.208 µM in the test with NCI/ADR-RES ovarian. Further, the GI50 in the test on RPMI-8226 leukemia was 0.207 µM; in the test on SK-MEL-2 melanoma, 0.276 µM; in the test on SN12C renal, 0.345 µM; in the test on T-47D breast, 0.203 µM. Also, the TGI with 786-0 renal, in the test with ACHN renal, in the test with IGROV1 ovarian, with M14 melanoma, in the test on MOLT-4 leukemia and in the test on NCI/ADR-RES ovarian was more than 50 µM throughout. Besides, the TGI in the test with RPMI-8226 leukemia, with SK-MEL-2 melanoma, in the test on SN12C renal and with T-47D breast was more than 50 µM throughout.

On to `CSc1nc(Cl)c(Br)c(Nc2c[nH]c(=O)[nH]c2=O)n1`, for which the TGI in the test on 786-0 renal was 27.1 µM; with ACHN renal, 35.5 µM; in the test on IGROV1 ovarian, 19.9 µM; in the test with M14 melanoma, more than 100 µM; in the test on MOLT-4 leukemia, 43.6 µM; in the test with NCI/ADR-RES ovarian, 43.3 µM. Also, the TGI in the test on RPMI-8226 leukemia was more than 100 µM; in the test with SK-MEL-2 melanoma it was 44.4 µM; in the test on SN12C renal, 35.3 µM; with T-47D breast, 40 µM.

Take `COc1ccc(C(=O)Nc2ncc(Cc3ccc(F)cc3)s2)cc1`: the GI50 in the test on 786-0 renal was 0.11 µM; in the test on ACHN renal, 0.0664 µM; with IGROV1 ovarian, 0.0957 µM; with M14 melanoma, 0.0378 µM; in the test with MOLT-4 leukemia, 0.0574 µM; in the test on NCI/ADR-RES ovarian, 0.0511 µM. Besides, the GI50 in the test on RPMI-8226 leukemia is 0.0373 µM; in the test with SK-MEL-2 melanoma it was 3.95 µM; with SN12C renal, 0.0988 µM; with T-47D breast, 0.06 µM. For the same compound, the TGI in the test with 786-0 renal is more than 100 µM; in the test with ACHN renal it was more than 95 µM; with IGROV1 ovarian, 97.7 µM; in the test on M14 melanoma, more than 100 µM; in the test with MOLT-4 leukemia, more than 100 µM; in the test on NCI/ADR-RES ovarian, more than 100 µM. The TGI in the test with SK-MEL-2 melanoma, in the test with SN12C renal and in the test with T-47D breast was more than 100 µM each time.

For `COC(=O)C1CC2(c3ccc(C)cc3)C(c3ccc(C)cc3)=C(c3ccc(C)cc3)C1(c1ccc(C)cc1)S2=O` (centres undefined), the GI50 with 786-0 renal is 70.8 µM; in the test with ACHN renal, more than 100 µM; in the test with IGROV1 ovarian, 98.4 µM; in the test with M14 melanoma it was more than 100 µM; in the test on MOLT-4 leukemia it was more than 100 µM; in the test with NCI/ADR-RES ovarian, 85.5 µM. In addition, the GI50 is more than 100 µM in the test with RPMI-8226 leukemia, more than 100 µM in the test on SK-MEL-2 melanoma, more than 100 µM in the test on SN12C renal and 60.4 µM with T-47D breast. In addition, the TGI with 786-0 renal, in the test with ACHN renal, in the test on IGROV1 ovarian, in the test with M14 melanoma, in the test on MOLT-4 leukemia and in the test with NCI/ADR-RES ovarian was more than 100 µM in each case. Further, the TGI in the test with RPMI-8226 leukemia, in the test on SK-MEL-2 melanoma, with SN12C renal and in the test with T-47D breast was more than 100 µM throughout.
